The values that follow come from patent USRE49873E1, “APP specific bace inhibitors (ASBIs) and uses thereof” (BUCK INSTITUTE FOR RESEARCH ON AGING, priority 2012, dated 2024).

For data set [1], the system named is Aβ1-40 and Aβ1-42 levels in hippocampal/entorhinal cortical tissue. Nature of the data set: Pilot efficacy testing in PDAPP (J20) AD model mice, Aβ ELISA. In kind it is in vivo. The conditions noted are these: 40 mpk sc daily for 14 days, hippocampus and cortex. The method, then:
Galangin and progalangin (PG-1) were dissolved in 10% solutol/15% DMSO/75% polyethylene glycol (PEG). Stock solutions were prepared at 10 mg/ml for each compound and 100 ul was injected subcutaneously daily for 14 days at a dose of 40 mkd. There were 5 PDAPP AD model J20 mice in both the galangin and progalangin groups, and 9 vehicle-only treated J20 controls. Mice were anesthetized, blood collected for plasma, and brain tissue collected as described above 2 hours after injection on the last day of treatment. The right hemibrain was further microdissected to isolate hippocampus and entorhinal cortex and this combined tissue was used for biochemical analysis. The remaining tissue and plasma was sent to IAS for compound level analysis.
Aβ1-42 and Aβ1-40 levels were determined using the hippocampal/entorhinal cortical tissue. Briefly, frozen tissue samples were weighed, and a 20% w/v sonicate prepared in 5M guandine-HCl/50 mM Tris, pH8. Sonication was performed with sample tubes in ice water, 4×5 seconds at 60 Hz, then 3×5 seconds at 80 Hz. Samples were then rotated at room temperature for 3 hours and frozen at −20° C. until assay. Invitrogen ELISA kits were used for Aβ1-40 and Aβ1-42 according to the manufacturer's instructions.

The subject of data set [2] is sAPPβ production by SH-SY5Y cells. The data set can be described thus: sAPPβ AlphaLisa in SH-SY5Y neuroblastoma cells. Type of data set: cell-based. How it is done:
APP is processed through two major pathways: the non-amyloidogenic pathway involves α-secretase cleavage, proteolyzing APP into sAPPα and α-CTF (C83), while the amyloidogenic pathway starts with β-secretase cleavage, cleaving APP into sAPPβ and β-CTF (C99). The β-CTF is then cleaved by the γ-secretase, which produces Aβ and AICD. The ability of the ASBIs to inhibit the β-secretase processing of APP was tested in SH-SY5Y neuroblastoma cells that express APP. The sAPPβ fragment formed from the BACE cleavage product was measured using an AlphaLisa assay from Perkin-Elmer (Cat# A2132). […] Testing of a panel of bioflavonoids led to the identification of galangin as an ASBI.

The nature of data set [3]: in vivo. Further details: species or system mice. The conditions noted are these: mouse. The method, then:
The brain penetrance of galangin and progalangin were assessed in a standard PK comprising subcutaneous (Sub-Q) injection of 5 adult non-transgenic mice with 50 ul of a 5 mg/ml stock of compound in dimethylsulfoxide (DMSO) or a dose of 10 mg/kg for a 25 g mouse. Injected mice were anesthetized with ketamine/xylazine at 1, 2, 4, 6, and 8 hours and blood collected by cardiac puncture. The mice were then perfused with saline and brain tissue dissected and snap frozen on dry ice. Blood was centrifuged at 3000 rpm for 10 minutes and the plasma supernatant collected. Both plasma and the right hemibrain were sent to Integrated Analytical Solutions (IAS, Berkeley, Calif.) with a reference sample of compound for compound level analysis in tissue and plasma. The compound levels were determined using a LC-MS/MS approach.
CNS exposure studies were performed and consisted of a time-course design to collect heparinized plasma and brains. Following sc administration of the galangin or progalangin (compound-2) at 10 mg/kg, plasma and brain levels of the compounds were determined by quantitative LC/MS/MS methodology. Plasma samples were precipitated with acetonitrile:methanol (1:1) cocktail containing an internal standard. The brain samples were homogenized directly in ethylacetate or extracted from 5M guanidine homogenates with the liquid-liquid method. The resulting supernatant was evaporated to dryness and subjected to the LC/MS/MS analysis. For each compound 5 mice were used for the analysis. The brain-to-plasma ratios and plasma/brain Cmax levels were then determined (see, e.g., FIG. 8).

Data set [4] deals with APLP2-Gal4 transactivation in HEK293T cells. The data set can be described thus: APLP2-Gal4/Mint3/TAZ transactivation assay. Type of data set: cell-based. The conditions noted are these: Mint3 and TAZ present, galangin at 10 μM. From the text:
FIGS. 7A and 7B illustrate inhibition of APP-Gal4 and APLP2-Gal4 transactivation by galangin. […] This transactivation was inhibited by Galangin and BACE inhibitor IV. FIG. 7B: Potent transactivation of transcription was also achieved with APLP2 fused to the Gal4 DNA binding domain when both Mint3 and TAZ were present. This transactivation was inhibited by Galangin and BACE inhibitor IV. […] The normalized luciferase activity is expressed as a percentage of the DMSO treated control (FIGS. 7A, 7B). Error bars indicate SEM. (*, p<0.05; **, p<0.01; ***, p<0.001; n=3, student t test).
This assay system is described by Orcholski et al. (2011) J. Alzheimers Dis., 23(4):689-699. Transactivation is achieved upon transfection with Mint3 and Taz. The ASBI was expected to inhibit only the transactivation of APP-Gal4, not that of APLP2-Gal4. For these experiments cells were co-transfected with a Gal4-luciferase reporter plasmid (to measure transactivation), a beta-galactosidase plasmid (to normalize for transfection efficiency), and the test plasmids identified. The normalized luciferase activity was expressed as fold induction over transcription by APP-Gal4 alone (FIG. 7A), or as fold induction over APLP2-Gal4 alone (FIG. 7B).
HEK293T cells were co-transfected with five plasmids: (1) pG5E1B-luc, 0.3 μg; (2) pCMV-LacZ, 0.1 μg; (3) pMst-APP (APP-Gal4) or pcDNA3.1-APLP2-Gal4, 0.3 μg; (4) pCMV5-Mint3, 1.0 μg; (5) pEF-N-FLAG-TAZ, 1.0 μg. Cells were harvested 48 hr after transfection in 0.2 ml per well Cell Culture Lysis Buffer (Promega), and their luciferase and β-galactosidase activities were determined with the Promega luciferase assay kit and the Promega β-galactosidase assay kit, respectively. The luciferase activity was standardized by the β-galactosidase activity to control for transfection efficiency and general effects on transcription. Transfections were performed at 80-90% cofluency in six-well plates using Lipofectamine 2000 (Invitrogen).

Entries after “also recorded” stand apart in the source; their conditions may differ.

On to `O=c1c(O)c(-c2ccccc2)oc2cc(O)cc(O)c12` [Galangin], for which the “Aβ1-42 (Aβ42) levels in brain” value in data set [1] was “unchanged”. Moreover, in data set [1] (40 mg/kg), the “Aβ1-40 (Aβ40) levels in brain” value is given as “some reduction of Aβ40; also recorded: slightly lower”. Besides, the APP levels entry in data set [2] is given as “No effect on APP levels was detected”. For the same compound, in data set [2] (50 μM), the sAPPβ levels result is recorded as “decreased sAPPβ levels”. Besides, in data set [3], the brain penetration entry is given as “did show some brain penetration” and the “plasma levels versus brain tissue levels” value is “Plasma levels were greater than brain tissue levels”. In addition, in data set [3] (sc, 10 mg/kg), the “brain Cmax of galangin” value is around 50 ng/g, the “brain to plasma ratio” value is on record as 1:10 and the concentration at 1 h was 40 ng/g. Moreover, in data set [4], the APLP2-Gal4 transactivation result was “inhibited”. Further, the APLP2-Gal4 transactivation result in data set [4] (listed as galangin) is “inhibit; also recorded: inhibits APP-Gal4 and APLP2-Gal4”.
